Experimental data as given in patent US20230045421A1 (priority 2018, published 2023).
Where two headings read alike, the source gives them in different places.

System: HBV rcDNA
Experiment: HepDE19 assay with bDNA quantitation of HBV rcDNA
Format: cell-based, hepatitis B virus
Outline: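 HepDE19 cells (HepG2-derived, Tet-regulated HBV replication) were deprived of tetracycline and then exposed to compounds for 7 days at 37 °C in 0.5% DMSO, 8-point titration from 25 μM. rcDNA was quantified by bDNA and EC50/EC90 came from 4-parameter fits. CC50 was measured by CellTiter-Glo ATP content on replicate plates after 4 days.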

[1] = Hepatitis B virus, HepDE19, HepDE19 assay, inhibition of formation of rcDNA, read-out: DE-19bDNA EC50
[2] = HepDE19 assay, inhibition of formation of relaxed circular DNA (rcDNA), bDNA quantitation, read-out: DE-19bDNA EC50
[3] = HepDE19 assay, inhibition of formation of rcDNA, read-out: DE-19bDNA EC50
[4] = read-out: DE-19bDNA EC50, HepDE19 assay, inhibition of formation of relaxed circular DNA (rcDNA), bDNA quantitation

Question: With `CN(Cc1c[nH]c(=O)c2ccccc12)C(=O)Nc1ccc(F)c(Cl)c1` [Compound 1, 3-(3-Chloro-4-fluorophenyl)-1-methyl-1-((1-oxo-1,2-dihydroisoquinolin-4-yl)methyl)urea] as the compound, how does the EC50 [1] read?
Answer: The EC50 was 0.47 µM.

Question: For `CC(c1c[nH]c(=O)c2c(F)c(F)ccc12)N(C)C(=O)NCc1cc(F)c(F)c(F)c1` (single isomer, unassigned) [Compound 493, 1-(1-(7,8-Difluoro-1-oxo-1,2-dihydroisoquinolin-4-yl)ethyl)-1-methyl-3-(3,4,5-trifluorobenzyl)urea], which EC50 [2] is on record?
Answer: The EC50 was 15 µM.

Question: How did the EC50 [1] turn out when `C[C@H](c1c[nH]c(=O)c2ccccc12)N(C)C(=O)Nc1ccc(F)cc1` [Compound 90, (R)-3-(4-Fluorophenyl)-1-methyl-1-(1-(1-oxo-1,2-dihydroisoquinolin-4-yl)ethyl)urea] was run?
Answer: Its EC50 is 0.46 µM.

Question: `CC(c1cnc(NCc2ncn(C)n2)c2ccccc12)N(C)C(=O)Nc1ccc(F)c(Cl)c1` (single isomer, unassigned) [Compound 245, 3-(3-Chloro-4-fluorophenyl)-1-methyl-1-(1-(1-(((1-methyl-1H-1,2,4-triazol-3-yl)methyl)amino)isoquinolin-4-yl)ethyl)urea] was tested. Which EC50 [3] did it give?
Answer: The EC50 was 13 µM.

Question: `CC(c1c[nH]c(=O)c2cc(F)c(F)cc12)N(C)C(=O)Nc1cc(Cl)cc(Cl)c1` (single isomer, unassigned) [Compound 417, 3-(3,5-Dichlorophenyl)-1-(1-(6,7-difluoro-1-oxo-1,2-dihydroisoquinolin-4-yl)ethyl)-1-methylurea] was tested. Which EC50 [4] did it give?
Answer: Its EC50 is 0.14 µM.

Question: For `CC(c1cnc(S(C)(=O)=O)c2ccccc12)N(C)C(=O)Nc1ccc(F)c(Cl)c1` (single isomer, unassigned) [Compound 314, 3-(3-Chloro-4-fluorophenyl)-1-methyl-1-(1-(1-(methylsulfonyl)isoquinolin-4-yl)ethyl)urea], which EC50 [2] is on record?
Answer: Its EC50 is 8.3 µM.

Question: With `CC(c1cnc(OCc2ncn(C)n2)c2ccccc12)N(CCCO)C(=O)Nc1ccc(F)c(Cl)c1` (single isomer, unassigned) [Compound 255, 3-(3-Chloro-4-fluorophenyl)-1-(3-hydroxypropyl)-1-(1-(1-((1-methyl-1H-1,2,4-triazol-3-yl)methoxy)isoquinolin-4-yl)ethyl)urea] as the compound, how does the EC50 [3] read?
Answer: The EC50 was 5.1 µM.

Question: Which EC50 [2] does the source give for `CC(c1c[nH]c(=O)c2cc(F)c(F)cc12)N(C)C(=O)Nc1ccnc(Cl)c1` (single isomer, unassigned) [Compound 419, 3-(2-Chloropyridin-4-yl)-1-(1-(6,7-difluoro-1-oxo-1,2-dihydroisoquinolin-4-yl)ethyl)-1-methylurea] here?
Answer: The EC50 was 0.048 µM.

Question: How did the EC50 [3] turn out when `CC(c1c[nH]c(=O)c2ccc(F)cc12)N(C)C(=O)Nc1ccc(F)c(Cl)c1` (single isomer, unassigned) [Compound 169, 3-(3-Chloro-4-fluorophenyl)-1-(1-(6-fluoro-1-oxo-1,2-dihydroisoquinolin-4-yl)ethyl)-1-methylurea] was run?
Answer: The EC50 was 2.1 µM.

Question: For `CC(=O)NCCN(C(=O)Nc1ccc(F)c(Cl)c1)C(C)c1c[nH]c(=O)c2ccccc12` (single isomer, unassigned) [Compound 138, N-(2-(3-(3-Chloro-4-fluorophenyl)-1-(1-(1-oxo-1,2-dihydroisoquinolin-4-yl)ethyl)ureido)ethyl)acetamide], which EC50 [3] is on record?
Answer: Its EC50 is 19 µM.

Question: For `CC(c1c[nH]c(=O)c2cc(F)c(F)cc12)N(C)C(=O)Nc1ccccc1F` (single isomer, unassigned) [Compound 420, 1-(1-(6,7-Difluoro-1-oxo-1,2-dihydroisoquinolin-4-yl)ethyl)-3-(2-fluorophenyl)-1-methylurea], which EC50 [4] is on record?
Answer: Its EC50 is 0.74 µM.

Question: With `CC(C)CN(C(=O)Nc1ccc(F)c(Cl)c1)C(C)c1c[nH]c(=O)c2c(F)cccc12` (single isomer, unassigned) [Compound 361, 3-(3-Chloro-4-fluorophenyl)-1-(1-(8-fluoro-1-oxo-1,2-dihydroisoquinolin-4-yl)ethyl)-1-isobutylurea] as the compound, how does the EC50 [2] read?
Answer: The EC50 was 0.012 µM.

Question: For `CNC(=O)CN(C(=O)Nc1ccc(F)c(Cl)c1)C(C)c1c[nH]c(=O)c2ccccc12` (single isomer, unassigned) [Compound 129, 2-(3-(3-Chloro-4-fluorophenyl)-1-(1-(1-oxo-1,2-dihydroisoquinolin-4-yl)ethyl)ureido)-N-methylacetamide], which EC50 [1] is on record?
Answer: Its EC50 is 0.53 µM.

Question: With `CC(=O)NCCN(C(=O)Nc1ccc(F)c(Cl)c1)C(C)c1c[nH]c(=O)c2ccccc12` (single isomer, unassigned) [Compound 139, N-(2-(3-(3-Chloro-4-fluorophenyl)-1-(1-(1-oxo-1,2-dihydroisoquinolin-4-yl)ethyl)ureido)ethyl)acetamide] as the compound, how does the EC50 [3] read?
Answer: The EC50 was 0.46 µM.

Question: For `CC(c1cnc(NCc2cn[nH]n2)c2ccccc12)N(C)C(=O)Nc1ccc(F)c(Cl)c1` (single isomer, unassigned) [Compound 261, 1-(1-(1-(((2H-1,2,3-Triazol-4-yl)methyl)amino)isoquinolin-4-yl)ethyl)-3-(3-chloro-4-fluorophenyl)-1-methylurea], which EC50 [3] is on record?
Answer: Its EC50 is 6.1 µM.

Question: For `COc1ncc(C(CCO)NC(=O)Nc2ccc(F)c(Cl)c2)c2ccccc12` (single isomer, unassigned) [Compound 77, 1-(3-Chloro-4-fluorophenyl)-3-(3-hydroxy-1-(1-methoxyisoquinolin-4-yl)propyl)urea], which EC50 [3] is on record?
Answer: The EC50 was 7.4 µM.

Question: `Cc1cc(NC(=O)N(C)C(C)c2c[nH]c(=O)c3cc(F)c(F)cc23)ccc1F` (single isomer, unassigned) [Compound 427, 1-(1-(6,7-Difluoro-1-oxo-1,2-dihydroisoquinolin-4-yl)ethyl)-3-(4-fluoro-3-methylphenyl)-1-methylurea] was tested. Which EC50 [2] did it give?
Answer: The EC50 was 0.007 µM.

Question: With `CC(c1c[nH]c(=O)c2ccccc12)N(CC1CC1)C(=O)Nc1ccc(F)c(Cl)c1` (single isomer, unassigned) [Compound 86, 3-(3-Chloro-4-fluorophenyl)-1-(cyclopropylmethyl)-1-(1-(1-oxo-1,2-dihydroisoquinolin-4-yl)ethyl)urea] as the compound, how does the EC50 [3] read?
Answer: The EC50 was 0.02 µM.

Question: Which EC50 (Hepatitis B virus, HepDE19, read-out: DE-19bDNA EC50 (μM), HepDE19 assay, inhibition of formation of relaxed circular DNA (rcDNA), bDNA quantitation) does the source give for `CC(c1c[nH]c(=O)c2c(F)c(F)ccc12)N(C)C(=O)Nc1ccccc1F` (single isomer, unassigned) [Compound 457, 1-(1-(7,8-Difluoro-1-oxo-1,2-dihydroisoquinolin-4-yl)ethyl)-3-(2-fluorophenyl)-1-methylurea] here?
Answer: Its EC50 is 0.74 µM.

Question: How did the EC50 [4] turn out when `CCN(C(=O)Nc1ccccc1)C(C)c1c[nH]c(=O)c2cc(F)c(F)cc12` (single isomer, unassigned) [Compound 405, 1-(1-(6,7-Difluoro-1-oxo-1,2-dihydroisoquinolin-4-yl)ethyl)-1-ethyl-3-phenylurea] was run?
Answer: The EC50 was 0.058 µM.

Question: `CC(c1c[nH]c(=O)c2c(F)c(F)ccc12)N(C)C(=O)NCc1ccc(F)c(F)c1` (single isomer, unassigned) [Compound 489, 1-(1-(7,8-Difluoro-1-oxo-1,2-dihydroisoquinolin-4-yl)ethyl)-3-(3,4-difluorobenzyl)-1-methylurea] was tested. Which EC50 [2] did it give?
Answer: Its EC50 is 19 µM.

Question: For `CCn1cc(C(C)N(C)C(=O)Nc2ccc(F)c(Cl)c2)c2ccccc2c1=O` (single isomer, unassigned) [Compound 183, 3-(3-Chloro-4-fluorophenyl)-1-(1-(2-ethyl-1-oxo-1,2-dihydroisoquinolin-4-yl)ethyl)-1-methylurea], which EC50 [3] is on record?
Answer: The EC50 was 18 µM.

Question: For `CNc1ncc(C(C)N(C)C(=O)Nc2ccc(F)c(Cl)c2)c2ccccc12` (single isomer, unassigned) [Compound 231, 3-(3-Chloro-4-fluorophenyl)-1-methyl-1-(1-(1-(methylamino)isoquinolin-4-yl)ethyl)urea], which EC50 [3] is on record?
Answer: The EC50 was 12 µM.

Question: Which EC50 [3] does the source give for `CC(c1c[nH]c(=O)c2ccccc12)N(Cc1c[nH]nn1)C(=O)Nc1ccc(F)c(Cl)c1` (single isomer, unassigned) [Compound 267, 1-((2H-1,2,3-Triazol-4-yl)methyl)-3-(3-chloro-4-fluorophenyl)-1-(1-(1-oxo-1,2-dihydroisoquinolin-4-yl)ethyl)urea] here?
Answer: The EC50 was 0.35 µM.

Question: With `CC(c1cnc(NCc2ncn(C)n2)c2ccccc12)N(C)C(=O)Nc1ccc(F)c(Cl)c1` (single isomer, unassigned) [Compound 246, 3-(3-Chloro-4-fluorophenyl)-1-methyl-1-(1-(1-(((1-methyl-1H-1,2,4-triazol-3-yl)methyl)amino)isoquinolin-4-yl)ethyl)urea] as the compound, how does the EC50 [3] read?
Answer: Its EC50 is 0.14 µM.

Question: Which EC50 [1] does the source give for `COc1ncc(C(C)N(C)C(=O)Nc2ccc(F)c(Cl)c2)c2ccccc12` (single isomer, unassigned) [Compound 30, 3-(3-chloro-4-fluorophenyl)-1-(1-(1-methoxyisoquinolin-4-yl)ethyl)-1-methylurea] here?
Answer: Its EC50 is 0.56 µM.

Question: Which EC50 [2] does the source give for `CC(c1c[nH]c(=O)c2cc(F)c(F)cc12)N(CCCO)C(=O)Nc1ccc(F)cc1` (single isomer, unassigned) [Compound 292, 1-(1-(6,7-Difluoro-1-oxo-1,2-dihydroisoquinolin-4-yl)ethyl)-3-(4-fluorophenyl)-1-(3-hydroxypropyl) urea] here?
Answer: The EC50 was 0.01 µM.

Question: For `COCCOCCN(C(=O)Nc1ccc(F)c(Cl)c1)C(C)c1c[nH]c(=O)c2ccccc12` (single isomer, unassigned) [Compound 124, 3-(3-Chloro-4-fluorophenyl)-1-(2-(2-methoxyethoxy)ethyl)-1-(1-(1-oxo-1,2-dihydroisoquinolin-4-yl)ethyl)urea], which EC50 (read-out: DE-19bDNA EC50, HepDE19 assay, inhibition of formation of rcDNA) is on record?
Answer: The EC50 was 0.56 µM.

Question: How did the EC50 [3] turn out when `CC(c1c[nH]c(=O)c2ccccc12)N(CC(C)(C)CO)C(=O)Nc1ccc(F)c(Cl)c1` (single isomer, unassigned) [Compound 210, 3-(3-Chloro-4-fluorophenyl)-1-(3-hydroxy-2,2-dimethylpropyl)-1-(1-(1-oxo-1,2-dihydroisoquinolin-4-yl)ethyl)urea] was run?
Answer: Its EC50 is 0.1 µM.
